# Measurements from patent US20260285850A1, “SUBSTITUTED OXAZOLIDINONES AND IMIDAZOLINONES AS HERBICIDES” (FMC CORPORATION, priority 2023, published 2026).
# How the values were obtained:
# Type in all cases: in vivo
# corn (Zea mays) [1] = test: Test A preemergence soil spray, visual injury rating 0-100; conditions: 10 days, 0 = no effect, 100 = complete control
# Procedure, shortened: (§1)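 Scale 0–100 (no effect to complete control), visual, versus untreated controls, read 10 days after application. Application: preemergence directed spray onto seeded loam–sand soil, or postemergence to young plants; formulation in non-phytotoxic solvent with surfactant.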
# soybean (Glycine max) [2] = test: as above; conditions: 10 days, 0 = no effect, 100 = complete control
# Procedure, shortened: as §1
# [3] = system: ragweed (common ragweed, Ambrosia artemisiifolia); test: as above; conditions: 10 days, 0 = no effect, 100 = complete control
# Procedure, shortened: as §1
# [4] = system: oat, wild (wild oat, Avena fatua); test: as above; conditions: 10 days, 0 = no effect, 100 = complete control
# Procedure, shortened: as §1
# [5] = system: green foxtail (Setaria viridis); test: as above; conditions: 10 days, 0 = no effect, 100 = complete control
# Procedure, shortened: as §1
# kochia (Bassia scoparia) [6] = test: as above; conditions: 10 days, 0 = no effect, 100 = complete control
# Procedure, shortened: as §1
# [7] = system: ryegrass, Italian (italian ryegrass, Lolium multiflorum); test: as above; conditions: 10 days, 0 = no effect, 100 = complete control
# Procedure, shortened: as §1
# [8] = system: palmer (palmer amaranth, palmer pigweed, Amaranthus palmeri); test: as above; conditions: 10 days, 0 = no effect, 100 = complete control
# Procedure, shortened: as §1
# [9] = system: wheat (Triticum aestivum); test: as above; conditions: 10 days, 0 = no effect, 100 = complete control
# Procedure, shortened: as §1
# [10] = system: blackgrass (Alopecurus myosuroides); test: as above; conditions: 10 days, 0 = no effect, 100 = complete control
# Procedure, shortened: as §1
# [11] = system: barnyardgrass (Echinochloa crus-galli); test: as above; conditions: 10 days, 0 = no effect, 100 = complete control
# Procedure, shortened: as §1
# [12] = system: barnyardgrass (Echinochloa crusgalli); test: Test B flooded paddy test, visual plant response rating 0-100; conditions: 250 g ai/ha, Flood, applied to paddy water, evaluated after 13 days
# Procedure, shortened: (§2)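 2-leaf plants; flood 3 cm over soil; compound dosed into paddy water; depth kept constant; greenhouse 13 d; visual scoring vs controls. Dash = no result.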
# rice (Oryza sativa) = test: as above; conditions: 250 g ai/ha, Flood, applied to paddy water, evaluated after 13 days
# Procedure, shortened: as §2
# [13] = system: sedge, umbrella (small-flower umbrella sedge, Cyperus difformis); test: as above; conditions: 250 g ai/ha, Flood, applied to paddy water, evaluated after 13 days
# Procedure, shortened: as §2
# [14] = system: ducksalad (Heteranthera limosa); test: as above; conditions: 250 g ai/ha, Flood, applied to paddy water, evaluated after 13 days
# Procedure, shortened: as §2
# corn (Zea mays) [15] = test: Test A postemergence application, visual injury rating 0-100; conditions: Postemergence, 10 days, 0 is no effect, 100 is complete control
# Procedure, shortened: as §1
# soybean (Glycine max) [16] = test: as above; conditions: Postemergence, 10 days, 0 is no effect, 100 is complete control
# Procedure, shortened: as §1
# [17] = system: galium (catchweed bedstraw, Galium aparine); test: as above; conditions: Postemergence, 10 days, 0 is no effect, 100 is complete control
# Procedure, shortened: as §1
# [18] = system: ragweed (common ragweed, Ambrosia artemisiifolia); test: as above; conditions: Postemergence, 10 days, 0 is no effect, 100 is complete control
# Procedure, shortened: as §1
# [19] = system: oat, wild (wild oat, Avena fatua); test: as above; conditions: Postemergence, 10 days, 0 is no effect, 100 is complete control
# Procedure, shortened: as §1
# [20] = system: green foxtail (Setaria viridis); test: as above; conditions: Postemergence, 10 days, 0 is no effect, 100 is complete control
# Procedure, shortened: as §1
# kochia (Bassia scoparia) [21] = test: as above; conditions: Postemergence, 10 days, 0 is no effect, 100 is complete control
# Procedure, shortened: as §1
# [22] = system: ryegrass, Italian (italian ryegrass, Lolium multiflorum); test: as above; conditions: Postemergence, 10 days, 0 is no effect, 100 is complete control
# Procedure, shortened: as §1
# [23] = system: palmer (palmer amaranth, palmer pigweed, Amaranthus palmeri); test: as above; conditions: Postemergence, 10 days, 0 is no effect, 100 is complete control
# Procedure, shortened: as §1
# [24] = system: wheat (Triticum aestivum); test: as above; conditions: Postemergence, 10 days, 0 is no effect, 100 is complete control
# Procedure, shortened: as §1
# [25] = system: horseweed (Erigeron canadensis); test: as above; conditions: Postemergence, 10 days, 0 is no effect, 100 is complete control
# Procedure, shortened: as §1
# [26] = system: blackgrass (Alopecurus myosuroides); test: as above; conditions: Postemergence, 10 days, 0 is no effect, 100 is complete control
# Procedure, shortened: as §1
# [27] = system: barnyardgrass (Echinochloa crus-galli); test: as above; conditions: Postemergence, 10 days, 0 is no effect, 100 is complete control
# Procedure, shortened: as §1
structure (smiles),measurement,setting,value
CNC(=O)C1C=CC(NC(=O)C2(C)CN(c3cc(Cl)cc(Cl)c3)C(=O)O2)C1 (stereo not shown) [Compound 47],Corn plant response rating (0 to 100 scale),corn (Zea mays) [1]; 125 g ai/ha,30
same,Corn plant response rating (0 to 100 scale),corn (Zea mays) [1]; 500 g ai/ha,70
same,Soybean plant response rating (0 to 100 scale),soybean (Glycine max) [2]; 125 g ai/ha,10
same,Soybean plant response rating (0 to 100 scale),soybean (Glycine max) [2]; 500 g ai/ha,0
same,Ragweed plant response rating (0 to 100 scale),[3]; 125 g ai/ha,40
same,Ragweed plant response rating (0 to 100 scale),[3]; 500 g ai/ha,60
same,"Oat, Wild plant response rating (0 to 100 scale)",[4]; 125 g ai/ha,90
same,"Oat, Wild plant response rating (0 to 100 scale)",[4]; 500 g ai/ha,90
same,"Foxtail, Green plant response rating (0 to 100 scale)",[5]; 125 g ai/ha,30
same,"Foxtail, Green plant response rating (0 to 100 scale)",[5]; 500 g ai/ha,100
same,Kochia plant response rating (0 to 100 scale),kochia (Bassia scoparia) [6]; 125 g ai/ha,90
same,Kochia plant response rating (0 to 100 scale),kochia (Bassia scoparia) [6]; 500 g ai/ha,100
same,"Ryegrass, Italian plant response rating (0 to 100 scale)",[7]; 125 g ai/ha,70
same,"Ryegrass, Italian plant response rating (0 to 100 scale)",[7]; 500 g ai/ha,90
same,"Amaranth, Palmer plant response rating (0 to 100 scale)",[8]; 125 g ai/ha,80
same,"Amaranth, Palmer plant response rating (0 to 100 scale)",[8]; 500 g ai/ha,100
same,Wheat plant response rating (0 to 100 scale),[9]; 125 g ai/ha,20
same,Wheat plant response rating (0 to 100 scale),[9]; 500 g ai/ha,80
same,Blackgrass plant response rating (0 to 100 scale),[10]; 125 g ai/ha,10
same,Blackgrass plant response rating (0 to 100 scale),[10]; 500 g ai/ha,90
same,Barnyardgrass plant response rating (0 to 100 scale),[11]; 125 g ai/ha,40
same,Barnyardgrass plant response rating (0 to 100 scale),[11]; 500 g ai/ha,100
same,"Plant response rating, Barnyardgrass (0 to 100 scale, 0 is no effect and 100 is complete control)",[12],0
same,"Plant response rating, Rice (0 to 100 scale, 0 is no effect and 100 is complete control)",rice (Oryza sativa),0
same,"Plant response rating, Sedge, Umbrella (0 to 100 scale, 0 is no effect and 100 is complete control)",[13],0
same,"Plant response rating, Ducksalad (0 to 100 scale, 0 is no effect and 100 is complete control)",[14],30
same,Corn plant response rating (0 to 100 scale),corn (Zea mays) [15]; 125 g ai/ha,80
same,Corn plant response rating (0 to 100 scale),corn (Zea mays) [15]; 500 g ai/ha,90
same,Soybean plant response rating (0 to 100 scale),soybean (Glycine max) [16]; 125 g ai/ha,30
same,Soybean plant response rating (0 to 100 scale),soybean (Glycine max) [16]; 500 g ai/ha,50
same,Galium plant response rating (0 to 100 scale),[17]; 125 g ai/ha,80
same,Galium plant response rating (0 to 100 scale),[17]; 500 g ai/ha,80
same,Ragweed plant response rating (0 to 100 scale),[18]; 125 g ai/ha,40
same,Ragweed plant response rating (0 to 100 scale),[18]; 500 g ai/ha,50
same,"Oat, Wild plant response rating (0 to 100 scale)",[19]; 125 g ai/ha,20
same,"Oat, Wild plant response rating (0 to 100 scale)",[19]; 500 g ai/ha,20
same,"Foxtail, Green plant response rating (0 to 100 scale)",[20]; 125 g ai/ha,20
same,"Foxtail, Green plant response rating (0 to 100 scale)",[20]; 500 g ai/ha,90
same,Kochia plant response rating (0 to 100 scale),kochia (Bassia scoparia) [21]; 125 g ai/ha,70
same,Kochia plant response rating (0 to 100 scale),kochia (Bassia scoparia) [21]; 500 g ai/ha,80
same,"Ryegrass, Italian plant response rating (0 to 100 scale)",[22]; 125 g ai/ha,30
same,"Ryegrass, Italian plant response rating (0 to 100 scale)",[22]; 500 g ai/ha,70
same,"Amaranth, Palmer / Pigweed, Palmer plant response rating (0 to 100 scale)",[23]; 125 g ai/ha,80
same,"Amaranth, Palmer / Pigweed, Palmer plant response rating (0 to 100 scale)",[23]; 500 g ai/ha,100
same,Wheat plant response rating (0 to 100 scale),[24]; 125 g ai/ha,10
same,Wheat plant response rating (0 to 100 scale),[24]; 500 g ai/ha,10
same,Horseweed plant response rating (0 to 100 scale),[25]; 125 g ai/ha,50
same,Horseweed plant response rating (0 to 100 scale),[25]; 500 g ai/ha,40
same,Blackgrass plant response rating (0 to 100 scale),[26]; 125 g ai/ha,20
same,Blackgrass plant response rating (0 to 100 scale),[26]; 500 g ai/ha,70
same,Barnyardgrass plant response rating (0 to 100 scale),[27]; 125 g ai/ha,0
same,Barnyardgrass plant response rating (0 to 100 scale),[27]; 500 g ai/ha,80
